Measurements: patent publication US10647680B2, “Urea compound, preparation method therefor and medical use thereof” (Ancureall Pharmaceutical (Shanghai) Co., Ltd., priority 2016, dated 2020)
Each block holds one compound with its values, some of them ahead of it.

Tests used:
[1] = tested on: NCI-H1993 (c-MET amp); test: In vitro growth inhibition (GI50), NCI-H1993; type: cell-based; settings: Homo sapiens, H1993, cMET Amp+
Excerpt: (§1) Tumor cell line is an effective cell model for studying the inhibition of tumor cell growth or proliferation in vitro. In the present invention, a representative tumor cell line was selected to determine the cell growth inhibition activity of the present compound. All cell lines used were from ATCC, DSMZ, and the Cell Bank of the Chinese Academy of Sciences. Cell culture conditions and methods were in accordance with the requirements of each cell line. Cells were subcultured in vitro for no more than 3 passages each time, and as required, single-clone purification and identification of cell lines could be carried out.
(§2) The cell culture media used were RPMI1640 (Gibco), MEM (Gibco), McCOY'S5A (Gibco), and IMDM (Gibco). The complete medium was prepared by supplement with 5˜20% fetal calf serum (Gibco), 1% double-antibiotics (10000 units/mL penicillin and 10000 units/mL), 2 mM glutamine or 1 mM sodium pyruvate, respectively.
The human gastric cancer cell line MKN-45 (c-MET amp, ATCC) and the non-small cell lung cancer cell line NCI-H1993 (c-MET amp, ATCC) were cultured in complete medium comprising 1×RPMI1640 and 10% FBS, respectively.
(§3) Adherent cells were digested with 0.25% pancreatin-EDTA (Gibco). The suspension cells were collected by centrifugation. The supernatant was discarded and the cell pellet was resuspended and counted. Different cell concentrations (5˜10×10^4 cells/mL) were prepared according to the growth cycle of each cell line and then seeded on a 96-well plate (Corning), 100 μL/well. The cells were incubated overnight at 37° C., 5% CO2. The compounds were added to the cells on the second day with 2 wells in parallel. The final concentration of organic solvent shall not exceed 1%. The cells were continually incubated for 3 to 5 days, and then subjected to MTT assay.
(§4) The compound of the present invention and the control compound were dissolved in DMSO (Sigma) respectively, with the purity of more than 98%. The compound was stored in a concentration of 10 mM at −20° C. and diluted to 2- or 10-fold series prior to use.
(§5) Dojindo CCK8 reagent kit was used as MTT assay. THERMO […] FC meter was used as microplate reader.
(§6) For adherent cells, culture medium was removed and immediately replaced with the fresh prepared medium which contains 10% CCK8 reagent (100 μL/well). For the suspension cells, CCK8 was directly added to 10% of the final concentration. The cells were continually incubated for 1˜4 h. When a dark yellow color could be observed in the solvent control wells, the absorbance value at OD450 nm was measured and the cell growth rate was calculated according to the following formula: Cell Growth Rate (%)=100*(T−T0)/(C−T0) T=optical density of drug treatment cell well—optical density of blank control well; T0=optical density of cell well before drug treatment—optical density of blank control well; C=optical density of cell well of solvent control group—optical density of blank control well. The concentration value of 50% inhibition of cell growth (GI50) was calculated according to the drug concentration and cell growth rate curve. The experiment was independently repeated 1˜3 times, and subject to biological statistical analysis. 4. Experimental Results
(§7) Tumor cell growth inhibition test was performed by selecting representative compounds (compounds 4, 11, 12, 16, 27, 68, 71, 77, 79, 89 and 116 of the present invention). The initial concentration of the compound was 5,000 nM, then it was serially diluted by 2-fold or 10-fold to 0.01 nM. The GI50 value of each test compound was calculated according to the GI50 assay and calculation method. The experiments were repeated 1 to 3 times, and data were subjected to biological statistical analysis.

[2] = tested on: SH-SY5Y (expressing ALK F1174L mutant protein); test: In vitro growth inhibition (GI50), SH-SY5Y; type: cell-based; settings: Homo sapiens
Excerpt: as §1, §2
Human non-small cell lung cancer cell line NCI-H2228 (expressing EML4-ALK fusion gene, ATCC) and human anaplastic large cell lymphoma cell line Karpas-299 (expressing NPM-ALK fusion gene, ATCC) were cultured in complete medium comprising 1×RPMI1640 (10% FBS), respectively. Neuroblastoma cell line SH-SY5Y (expressing ALK F1174L mutant protein, Shanghai Cell Bank, Chinese Academy of Sciences) was cultured in MEM complete medium (1×MEM, 10% FBS, 1% NEAA, 1 mM sodium pyruvate).
as §3, §4, §5, §6, §7

[3] = tested on: MV4-11 cell Bab/c nude mouse tumor model; test: In vivo tumor growth inhibition experiment; settings: for effect on body weight of nude mice: compared with the solvent control group
Method: Xenotransplantation in immunodeficient mice is an effective model for testing in vivo antitumor activity of compounds in animals. Bab/c immunodeficient mice are one of the most commonly used tumor cell xenografts. […] Log-phase MV4-11 cells were collected in a 50 ml of centrifuge tube (Corning), centrifuged at 1,700 rpm for 3 minutes, and the supernatant was discarded. Cells were suspended in a 50 ml 1×RPMI 1640 serum-free medium, and centrifuged, the supernatant was discarded and resuspension was performed. The cells were counted (Countess® Automated Cell Counting Apparatus, Invitrogen), prepared into […], placed on ice, and inoculated subcutaneously with 10×10^6 (0.2 ml) to the right back of 6-8-week female Bab/c nude mice (about 20 g in weight) (purchased from Shanghai Sippr-BK Experimental Animal Co., Ltd., Animal Center of Shanghai University of Traditional Chinese Medicine, approved by Ethical Committee of Shanghai University of Traditional Chinese Medicine). When the tumor grew to a size of 100-200 mm^3, animals were randomly grouped and earmarked and weighed. The treatment group consisted of 3 to 6 nude mice in each group. Drugs were prepared into different concentrations of milky suspension with a solvent PTP solution (30% polyethylene glycol 400, 0.5% Tween-80, 2.5% propylene glycol). Animals were given by oral gavage continuously at a concentration of 0.1 ml/10 g body weight, with a dose range of 0.1-200 mg/kg (the purity of the test compound of the present invention was 99% or more, and the proportion of single impurity was not more than 0.1%). In the control group, 3 to 6 nude mice in each group were given the same volume (0.1 ml/10 g body weight) of solvent PTP solution, and the tumors were measured 3 to 4 times per week. When the average tumor volume in the control group reached 1500 mm^3, or on the 28th day of administration, the experiment ended, then the tumor was weighed and subjected to molecular pathology assay.
The tumor volume was calculated as V=½a×b^2, where a is the length and b is the width. The relative tumor volume (RTV) was calculated based on the measured results and the formula was RTV=Vt/V0, where V0 is the measured tumor volume when administered in divided cages (i.e., do), and Vt is the tumor volume at each measurement.

- GI50 [1]: > 2500 nM
- GI50 [2]: > 2500 nM
SMILES: COc1ccc2c(c1)ncn2-c1ccc(NC(=O)Nc2cc(C(C)(C)C)n[nH]2)cc1 [Compound 71, 1-(5-tert-butyl-2H-pyrazol-3-yl)-3-[4-(5-methoxyl-benzimidazol-1-yl)-phenyl]-urea]
- Tumor Inhibition Rate (%) ([3]; Dose 0.5 mg/kg, Day 6): 37.2%
- Tumor Inhibition Rate (%) ([3]; Dose 0.5 mg/kg, Day 10): 34.5%
- Tumor Inhibition Rate (%) ([3]; Dose 0.5 mg/kg, Day 15): 32.6%
- Tumor Inhibition Rate (%) ([3]; Dose 0.5 mg/kg, Day 20): 36.9%
- Tumor Inhibition Rate (%) ([3]; Dose 0.5 mg/kg, Day 28): 37.3%
- Tumor Inhibition Rate (%) ([3]; Dose 1 mg/kg, Day 6): 62.2%
- Tumor Inhibition Rate (%) ([3]; Dose 1 mg/kg, Day 10): 64.5%
- Tumor Inhibition Rate (%) ([3]; Dose 1 mg/kg, Day 15): 69.6%
- Tumor Inhibition Rate (%) ([3]; Dose 1 mg/kg, Day 20): 65.4%
- Tumor Inhibition Rate (%) ([3]; Dose 1 mg/kg, Day 28): 66.6%
- Tumor Inhibition Rate (%) ([3]; Dose 2.5 mg/kg, Day 6): 63.7%
- Tumor Inhibition Rate (%) ([3]; Dose 2.5 mg/kg, Day 10): 76.8%
- Tumor Inhibition Rate (%) ([3]; Dose 2.5 mg/kg, Day 15): 77.9%
- Tumor Inhibition Rate (%) ([3]; Dose 2.5 mg/kg, Day 20): 80.5%
- Tumor Inhibition Rate (%) ([3]; Dose 2.5 mg/kg, Day 28): 83.8%
- Tumor Inhibition Rate (%) ([3]; Dose 5 mg/kg, Day 6): 84.5%
- Tumor Inhibition Rate (%) ([3]; Dose 5 mg/kg, Day 10): 94.3%
- Tumor Inhibition Rate (%) ([3]; Dose 5 mg/kg, Day 15): 98.8%
- Tumor Inhibition Rate (%) ([3]; Dose 5 mg/kg, Day 20): 100.0%
- Tumor Inhibition Rate (%) ([3]; Dose 5 mg/kg, Day 28): 100%
- Tumor Inhibition Rate (%) ([3]; Dose 10 mg/kg, Day 6): 87.2%
- Tumor Inhibition Rate (%) ([3]; Dose 10 mg/kg, Day 10): 96.4%
- Tumor Inhibition Rate (%) ([3]; Dose 10 mg/kg, Day 15): 99.8%
- Tumor Inhibition Rate (%) ([3]; Dose 10 mg/kg, Day 20): 100%
- Tumor Inhibition Rate (%) ([3]; Dose 10 mg/kg, Day 28): 100%
- Tumor Inhibition Rate (%) ([3]; Dose 25 mg/kg, Day 6): 90.0%
- Tumor Inhibition Rate (%) ([3]; Dose 25 mg/kg, Day 10): 98.0%
- Tumor Inhibition Rate (%) ([3]; Dose 25 mg/kg, Day 15): 100.0%
- Tumor Inhibition Rate (%) ([3]; Dose 25 mg/kg, Day 20): 100.0%
- Tumor Inhibition Rate (%) ([3]; Dose 25 mg/kg, Day 28): 100%
- Tumor Inhibition Rate (%) ([3]; Dose 50 mg/kg, Day 6): 91.6%
- Tumor Inhibition Rate (%) ([3]; Dose 50 mg/kg, Day 10): 99.0%
- Tumor Inhibition Rate (%) ([3]; Dose 50 mg/kg, Day 15): 100.0%
- Tumor Inhibition Rate (%) ([3]; Dose 200 mg/kg, Day 6): 93.1%
- Tumor Inhibition Rate (%) ([3]; Dose 200 mg/kg, Day 10): 100.0%
- Tumor Inhibition Rate (%) ([3]; Dose 200 mg/kg, Day 15): 100.0%
- tumor growth inhibitory activity compared with compound 68 ([3]; MV4-11 xenograft): stronger tumor growth inhibitory activity
- tumor growth inhibitory activity ([3]; dose of 1 to 2.5 mg/kg, oral gavage): obvious tumor growth inhibitory activity
- effect on body weight of nude mice ([3]; dose ≤25 mg/kg): no significant effect

SMILES: COCCOc1ccc2c(c1)ncn2-c1ccc(NC(=O)Nc2cc(C(C)(C)C)n[nH]2)cc1 [Compound 77, 1-(5-tert-butyl-2H-pyrazol-3-yl)-3-{4-[5-(2-methoxyl-ethoxyl)-benzimidazol-1-yl]-phenyl}-urea]
- GI50 [1]: > 2500 nM
- GI50 [2]: > 2500 nM
- Tumor Inhibition Rate (%) ([3]; Dose 2.5 mg/kg, Day 6): 79.2%
- Tumor Inhibition Rate (%) ([3]; Dose 2.5 mg/kg, Day 10): 93.2%
- Tumor Inhibition Rate (%) ([3]; Dose 2.5 mg/kg, Day 15): 100%
- Tumor Inhibition Rate (%) ([3]; Dose 2.5 mg/kg, Day 20): 100%
- tumor outcome ([3]; drug dose 2.5 mg/kg, 15th day of administration): tumor disappears completely
- effect on body weight of nude mice ([3]; drug dose 2.5 mg/kg): no significant effect

- GI50 [1]: > 2500 nM
- GI50 [2]: > 2500 nM
SMILES: CC(C)(C)c1cc(NC(=O)Nc2ccc(-n3cnc4cc(OCCN5CCOCC5)ccc43)cc2)[nH]n1 [Compound 89, 1-(5-tert-butyl-2H-pyrazol-3-yl)-3-{4-[5-(2-morpholin-4-yl-ethoxyl)-benzimidazol-1-yl]-phenyl}-urea]
- Tumor Inhibition Rate (%) ([3]; Dose 2.5 mg/kg, Day 6): 60.7%
- Tumor Inhibition Rate (%) ([3]; Dose 2.5 mg/kg, Day 10): 79.4%
- Tumor Inhibition Rate (%) ([3]; Dose 2.5 mg/kg, Day 15): 84.7%
- Tumor Inhibition Rate (%) ([3]; Dose 2.5 mg/kg, Day 20): 87.2%
